Where two headings read alike, the source gives them in different places.
How the values were obtained:
A549 = A549 assay: screening of cancer cell growth inhibiting compound; type: cell-based; settings: Homo sapiens, A549 cells, read-out: A549 IC50
Method: Screening of Cancer Cell Growth Inhibiting Compound
A cell suspension solution (RERF-LC-AI, A549: 1×10^4/ml, MRC5: 3×10^4/ml and 1×10^5/ml) adjusted to an appropriate concentration with D-MEM (hereinafter, referred to as a culture solution and manufactured by Nacalai Tesque Inc.) supplemented with 10% FBS (HyClone) was added to the wells of a 96-well plate (hereinafter, well plate) at a rate of 100 μL/well and incubated in a CO2 incubator at 37° C. for a day. […] Next, cells were added to each well of the well plate prepared and the above compound dilution solution was added at a rate of 100 μL/well to obtain 200 μL/well. Thereafter, the cells were incubated in the CO2 incubator at 37° C. for further three days. To each well of the well plate, 10 μL of a WST-8 kit (Kishida Chemical Co., Ltd.) solution for counting the number of cells was added and a color reaction was performed in the CO2 incubator for 1 to 4 hours. After the absorbance at 450 nm (reference wavelength: 620 nm) was measured by a microplate reader, suppressing action of the test substance was calculated based on the absorbance value in the absence of a test substance.

TTK = biological target: T1, TTK (Homo sapiens, UniProt P33981); test: TTK assay: screening of TTK kinase activity suppressing action using p38 MAPK peptide; type: biochemical; settings: read-out: TTK IC50
T1 sequence (P33981 1-857): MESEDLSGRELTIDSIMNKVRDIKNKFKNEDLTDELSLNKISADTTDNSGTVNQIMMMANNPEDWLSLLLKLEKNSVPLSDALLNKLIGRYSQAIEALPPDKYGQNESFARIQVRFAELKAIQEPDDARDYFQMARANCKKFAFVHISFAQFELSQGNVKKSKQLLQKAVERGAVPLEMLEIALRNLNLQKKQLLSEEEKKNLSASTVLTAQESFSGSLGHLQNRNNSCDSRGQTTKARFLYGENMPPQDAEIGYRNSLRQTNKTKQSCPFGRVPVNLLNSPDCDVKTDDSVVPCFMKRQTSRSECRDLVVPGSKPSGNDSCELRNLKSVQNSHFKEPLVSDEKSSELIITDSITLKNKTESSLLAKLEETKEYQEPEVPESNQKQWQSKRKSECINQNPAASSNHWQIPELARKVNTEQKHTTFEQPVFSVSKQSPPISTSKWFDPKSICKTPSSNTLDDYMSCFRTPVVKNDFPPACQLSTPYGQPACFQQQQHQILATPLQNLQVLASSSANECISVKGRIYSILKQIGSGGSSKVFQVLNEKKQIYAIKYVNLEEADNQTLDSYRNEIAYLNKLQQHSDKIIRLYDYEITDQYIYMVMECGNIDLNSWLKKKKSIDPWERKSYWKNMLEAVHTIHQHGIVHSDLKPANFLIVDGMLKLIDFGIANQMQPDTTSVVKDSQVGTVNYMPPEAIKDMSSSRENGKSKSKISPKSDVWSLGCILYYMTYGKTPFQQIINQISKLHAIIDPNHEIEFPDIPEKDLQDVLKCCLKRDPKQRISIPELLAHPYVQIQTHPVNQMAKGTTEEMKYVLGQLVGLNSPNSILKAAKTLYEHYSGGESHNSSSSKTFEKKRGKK
Method: Screening of a compound having a TTK kinase activity suppressing action using p38 MAPK peptide
A test substance 1.0 μL (solvent: 10% (v/v) DMSO), TTK solution 5 μL (composition: 4 μg/ml TTK, 25 mM Tris-HCl, pH7.5, 5 mM β-glycerophosphate, 2 mM DTT, 0.1 mM Na3VO4, 5 mM MgCl2, 0.1% (w/v)BSA) and a substrate solution 5 μL (composition: 60 μM p38 MAPK peptide, 60 μM ATP, 25 mM Tris-HCl, pH7.5, 5 mM β-glycerophosphate, 2 mM DTT, 0.1 mM Na3VO4, 5 mM MgCl2, 0.1% (w/v)BSA) were mixed in the wells of a 384-well microtiter plate (manufactured by Corning Incorporated) made of polypropylene and loaded in a constant temperature and humidity room.
From the resultant mixture, an aliquot of 1.7 μL was taken out and mixed with the reaction terminating solution (60 μl) in the wells of a 384-well microtiter plate (manufactured by Corning Incorporated) made of polypropylene. Thereafter, 40 μL of the mixture was transferred to a 384-well black NeutrAvidin plate (PIERCE), sealed and incubated under room temperature for 30 minutes. […] Similarly, the plate was washed with TTBS (100 μL) three times, 40 μl of a secondary antibody solution (Eu-N1 labeled Anti-mouse IgG (Perkin Elmer, #AD0124)) was added and incubated under room temperature for 30 minutes. After the plate was washed with TTBS (100 μL) five times, 40 μL of an enhance solution (Perkin Elmer) was added and incubated under room temperature for 5 minutes. […] Based on the fluorescence value in the absence of a test substance, the suppression activity of a test substance was measured.

SMILES | IC50 (A549; values given as IC50 intervals) | IC50 (TTK) | IC50 (A549; 72 h, three days, WST-8) | IC50 (TTK; p38 MAPK peptide substrate)
O=C(NC1CC1)c1ccc(-c2cnc3c(NCC4CCOCC4)cc(OCC45CC6CC(CC(C6)C4)C5)nn23)cc1 [Example 2-190] | 1000 to 10000 nM | 16.1 nM |  | 
O=C(NC1CC1)c1ccc(-c2cnc3c(NCC4CCOCC4)cc(N4CCCCC4)nn23)cc1 [Example 2-12] |  |  | 50 to 500 nM | 8.4 nM
Cc1cccc(C)c1Oc1cc(NCC2CCOCC2)c2ncc(-c3ccc(C(=O)NC4CC4)cc3)n2n1 [Example 2-107] |  |  | 50 to 500 nM | 34.4 nM
O=C(NC1CC1)c1ccc(-c2cnc3c(OCC4CCOCC4)cc(NC4CCCCC4)nn23)cc1 [Example 2-89, 4-(6-(Cyclohexylamino)-8-((tetrahydro-2H-pyran-4-yl)methoxy)imidazo[1,2-b]pyridazin-3-yl)-N-cyclopropylbenzamide] |  |  | 50 to 500 nM | 5 nM
O=C(NC1CC1)c1ccc(-c2cnc3c(NCc4cncs4)cc(NC4CCCCC4)nn23)cc1 [Example 2-147] |  |  | 50 to 500 nM | 2.9 nM
O=C(NC1CC1)c1ccc(-c2cnc3c(NCC4CCOCC4)cc(OC4CCCC4)nn23)cc1 [Example 2-173] | 50 to 500 nM | 5.4 nM |  | 
CC1(C)CCC(Oc2cc(NCC3CCOCC3)c3ncc(-c4ccc(C(=O)NC5CC5)cc4)n3n2)CC1 [Example 2-187] | 500 to 1000 nM | 7.8 nM |  | 
COCCOc1cc(NCC2CCOCC2)c2ncc(-c3ccc(C(=O)NC4CC4)cc3)n2n1 [Example 2-175] | 50 to 500 nM | 11.4 nM |  | 
CC1(Oc2cc(NCC3CCOCC3)c3ncc(-c4ccc(C(=O)NC5CC5)cc4)n3n2)CCCCC1 [Example 2-171, N-Cyclopropyl-4-(6-(1-methylcyclohexyloxy)-8-((tetrahydro-2H-pyran-4-yl)methylamino)imidazo[1,2-b]pyridazin-3-yl)benzamide] | 50 to 500 nM | 3.5 nM |  | 
O=C(NC1CC1)c1ccc(-c2cnc3c(NCC4CCOCC4)cc(N4CCC(C(F)(F)F)CC4)nn23)cc1 [Example 2-51] |  |  | 50 to 500 nM | 13.4 nM
O=C(NC1CC1)c1ccc(-c2cnc3c(NCC4CCOCC4)cc(NC4C5CC6CC(C5)CC4C6)nn23)cc1 (stereo not shown) [Example 2-73] |  |  | 50 to 500 nM | 3.5 nM
O=C(NC1CC1)c1ccc(-c2cnc3c(NCC4CCCC4)cc(NC4CCCCC4)nn23)cc1 [Example 2-129] |  |  | 50 to 500 nM | 6.7 nM
N#CC1CCN(c2cc(NCC3CCOCC3)c3ncc(-c4ccc(C(=O)NC5CC5)cc4)n3n2)CC1 [Example 2-23] |  |  | 50 to 500 nM | 8.8 nM
Nc1c(F)cccc1Oc1cc(NCC2CCOCC2)c2ncc(-c3ccc(C(=O)NC4CC4)cc3)n2n1 [Example 2-98] |  |  | ≤ 50 nM | 2.4 nM
Cc1ccccc1Oc1cc(NCC2CCOCC2)c2ncc(-c3ccc(C(=O)NC4CC4)cc3)n2n1 [Example 2-101] |  |  | 50 to 500 nM | 2.5 nM
O=C(NC1CC1)c1ccc(-c2cnc3c(NCc4ccco4)cc(NC4CCCCC4)nn23)cc1 [Example 2-152] |  |  | 50 to 500 nM | 3.6 nM
CC(C)CN(CC(F)(F)F)c1cc(NCC2CCOCC2)c2ncc(-c3ccc(C(=O)NC4CC4)cc3)n2n1 [Example 2-32] |  |  | 50 to 500 nM | 3.9 nM
O=C(NC1CC1)c1ccc(-c2cnc3c(NCCCCO)cc(NC4CCCCC4)nn23)cc1 [Example 2-130] |  |  | 50 to 500 nM | 9.7 nM
CCC(C)CNc1cc(NCC2CCOCC2)c2ncc(-c3ccc(C(=O)NC4CC4)cc3)n2n1 (stereo not shown) [Example 2-59] |  |  | 50 to 500 nM | 5.2 nM

SMILES | IC50 (A549; values given as IC50 intervals) | IC50 (TTK) | IC50 (A549; 72 h, three days, WST-8) | IC50 (TTK; p38 MAPK peptide substrate)
O=C(NC1CC1)c1ccc(-c2nnc3c(NCC4CCOCC4)cc(NC4CCCC4)nn23)cc1 [Example 3-3, 4-(6-(Cyclopentylamino)-8-((tetrahydro-2H-pyran-4-yl)methylamino)-[1,2,4]triazolo[4,3-b]pyridazin-3-yl)-N-cyclopropylbenzamide] | 1000 to 10000 nM | 145 nM |  | 
CC(Oc1cc(NCC2CCOCC2)c2ncc(-c3ccc(C(=O)NC4CC4)cc3)n2n1)C(F)(F)F (stereo not shown) [Example 2-184] | 50 to 500 nM | 5.6 nM |  | 
COc1cc(-c2cnc3c(NCC4CCOCC4)cc(NC4CCCC4)nn23)ccc1C(=O)NC1CC1 [Example 2-233] | 500 to 1000 nM | 5.7 nM |  | 
O=C(NC1CC1)c1ccc(-c2cnc3c(NCC4CCSCC4)cc(NC4CCCCC4)nn23)cc1 [Example 2-131] |  |  | 50 to 500 nM | 5.5 nM
O=C(NC1CC1)c1ccc(-c2cnc3c(NCC4CCOCC4)cc(N4CCCC4)nn23)cc1 [Example 2-53] |  |  | 1000 to 10000 nM | 25.9 nM
CC(CNc1cc(NC2CCCCC2)nn2c(-c3ccc(C(=O)NC4CC4)cc3)cnc12)C(F)(F)F (stereo not shown) [Example 2-162] |  |  | 50 to 500 nM | 3.6 nM
O=C(NC1CC1)c1ccc(-c2cnc3c(NC[C@H]4CC[C@H](O)CC4)cc(NC4CCCCC4)nn23)cc1 [Example 2-164] |  |  | 50 to 500 nM | 3.3 nM
O=C(NC1CC1)c1ccc(-c2cnc3c(NCC4CCOCC4)cc(Oc4cccc(F)c4)nn23)cc1 [Example 2-106] |  |  | ≤ 50 nM | 6.4 nM
O=C(NC1CC1)c1ccc(-c2noc3c(NCC4CCOCC4)nc(NC4CCCC4)nc23)cc1 [Example 3-4, 4-(5-(cyclopentylamino)-7-((tetrahydro-2H-pyran-4-yl)methylamino)isoxazolo[4,5-d]pyrimidin-3-yl)-N-cyclopropylbenzamide] |  | 527 nM |  | 
Cc1ccc(Oc2cc(NCC3CCOCC3)c3ncc(-c4ccc(C(=O)NC5CC5)cc4)n3n2)cc1 [Example 2-103] |  |  | 50 to 500 nM | 4.4 nM
N#Cc1ccc(-c2cn3c(-c4ccc(C(=O)NC5CC5)cc4)cnc3c(NCC3COCCO3)n2)cc1 (stereo not shown) [Example 1-222] |  |  | 50 to 500 nM | 16.8 nM
CC(C)CN(CC1CC1)c1cc(NCC2CCOCC2)c2ncc(-c3ccc(C(=O)NC4CC4)cc3)n2n1 [Example 2-33] |  |  | 500 to 1000 nM | 5.4 nM
COC1CCN(c2cc(NCC3CCOCC3)c3ncc(-c4ccc(C(=O)NC5CC5)cc4)n3n2)CC1 [Example 2-26] |  |  | 50 to 500 nM | 8.9 nM
Cc1cccc(Oc2cc(NCC3CCOCC3)c3ncc(-c4ccc(C(=O)NC5CC5)cc4)n3n2)c1 [Example 2-102] |  |  | 50 to 500 nM | 3 nM
O=C(NC1CC1)c1ccc(-c2cnc3c(NCC4CCOCC4)cc(Oc4cccc(C(F)(F)F)c4)nn23)cc1 [Example 2-111] |  |  | 50 to 500 nM | 3.8 nM
CC1CCC(Nc2cc(NCC3CCOCC3)c3ncc(-c4ccc(C(=O)NC5CC5)cc4)n3n2)CC1 (stereo not shown) [Example 2-19] |  |  | 50 to 500 nM | 6 nM
O=C(NC1CC1)c1ccc(-c2cnc3c(NCC45CCN(CC4)CC5)cc(NC4CCCCC4)nn23)cc1 [Example 2-153] |  |  | 50 to 500 nM | 7.5 nM
CC(C)C(Nc1cc(NCC2CCOCC2)c2ncc(-c3ccc(C(=O)NC4CC4)cc3)n2n1)C(F)(F)F (stereo not shown) [Example 2-78] |  |  | ≤ 50 nM | 3.5 nM

Source: US20120059162A1, “FUSED IMIDAZOLE DERIVATIVE HAVING TTK INHIBITORY ACTION” (Oncotherapy Science, Inc., priority 2009, published 2012)
